Laboratory results taken from patent US20110280940A1, “Di-Vanilloyl And Tri-Vanilloyl Derivatives For Use In Anti-Cancer Therapy” (priority 2008, published 2011).
Like-named read-outs stand apart in the source and are kept apart here.

Assays:
[1] = tested on: Eleven human cancer cell lines; assay: MTT colorimetric assay, across the eleven human cancer cell lines; format: cell-based
Method in brief: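 Seed cells in their own medium and incubate 24 h at 37 °C. Replace medium with compound-containing medium (10^-8 to 10^-4 M) and incubate 72 h.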

[2] = molecular target: T1, Aurora A kinase (Homo sapiens, UniProt O14965); assay: Radiometric protein kinase assay (33 PanQinase), Aurora A; format: biochemical; conditions: for IC50: dose-response 0-100 μM, n=3, read-out: IC50: Concentration of drug needed in order to inhibit kinase activity by 50%, AurA; for inhibition at 57 µM: read-out: inhibition of Aurora A activity
T1 construct: made in house
T1 sequence (O14965 1-403): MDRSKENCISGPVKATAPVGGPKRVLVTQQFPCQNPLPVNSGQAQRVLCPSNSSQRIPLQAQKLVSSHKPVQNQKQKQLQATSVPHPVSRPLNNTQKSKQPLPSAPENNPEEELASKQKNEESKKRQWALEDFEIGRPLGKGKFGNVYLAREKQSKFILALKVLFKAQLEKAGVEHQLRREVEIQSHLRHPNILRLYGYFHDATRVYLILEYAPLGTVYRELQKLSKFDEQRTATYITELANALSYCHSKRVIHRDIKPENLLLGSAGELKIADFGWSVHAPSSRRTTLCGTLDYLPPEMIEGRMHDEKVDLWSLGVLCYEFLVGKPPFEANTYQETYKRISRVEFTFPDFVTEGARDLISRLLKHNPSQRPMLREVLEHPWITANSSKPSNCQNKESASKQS
Method: Note that at a concentration of 20 μM of the DLT compounds, the activity of the three Aurora kinases is reduced by approximately 40-50%, whereas at concentrations of 50 μM, i.e. the concentration used in the anti-proliferation assays of example 2B, the activity of said kinases is reduced by 60-75%.
The kinase inhibition profile of DLT95-Cl at 20 μM was determined using 255 protein kinases. Residual activity values were measured by testing each compound at one concentration in duplicate in each kinase assay. A radiometric protein kinase assay (33 PanQinase®Activity Assay) was used for measuring the kinase activity of 250 protein kinases. All kinase assays were performed in 96-well flashPlates™ from Perkin Elmer (Boston, Mass., USA) in a 50 μl reaction volume. The reaction cocktail was pipetted in 4 steps in the following order: • 10 μl of non-radioactive ATP solution (in H2O) • 25 μl of assay buffer/[γ-33P]-ATP mixture • 5 μl of test sample in 10% DMSO • 10 μl of enzyme/substrate mixture
The assay for all enzymes contained 60 mM HEPES-NaOH, pH 7.5, 3 mM MgCl2, 3 mM MnCl2, 3 μM Na-orthovanadate, 1.2 mM DTT, 50 μg/ml PEG20000, 1 μM ATP/[γ-33P]-ATP (approx. […] per well), protein kinase, and substrate. All PKC assays (except the PKC-mu and the PKC-nu assay) additionally contained 1 mM CaCl2, 4 mM EDTA, 5 μg/ml Phosphatidylserine and 1 μg/ml 1,2-Dioleyl-glycerol. The MYLK2, CAMK1D, CAMK2A, CAMK2B, CAMK2D, CAMK4, CAMKK2, DAPK2 and EEF2K assays additionally contained 1 μg/ml Calmodulin and 0.5 mM CaCl2. The PRKG1 and PRKG2 assays additionally contained 1 μM cGMP.
The protein kinases were expressed either in Sf9 insect cells or in E. coli as recombinant GST-fusion proteins or as His-tagged proteins. All kinases were produced from human cDNAs. Kinases were purified by affinity chromatography using either GSH-agarose (Sigma) or Ni-NTH-agarose (Qiagen). The purity of the protein kinases was examined by SDS-PAGE/coomassie staining. The identity of the protein kinases was checked by mass spectroscopy.
The reaction cocktails were incubated at 30° C. for 60 minutes. The reaction was stopped with 50 μl of 2% (v/v) H3PO4, plates were aspirated and washed two times with 200 μl 0.9% (w/v) NaCl. All assays were performed with a BeckmanCoulter Biomek 2000/SL robotic system.
Incorporation of ^33Pi (counting of “cpm”) was determined with a microplate scintillation counter (Microbeta, Wallac).
For each kinase, the median value of the cpm of three wells with complete reaction cocktails, but without kinase, was defined as “low control” […]. This value reflects unspecific binding of radioactivity to the plate in the absence of protein kinase but in the presence of the substrate. Additionally, for each kinase the median value of the cpm of three other wells with the complete reaction cocktail, but without any compound, was taken as the “high control”, i.e. full activity in the absence of any inhibitor […]. The difference between high and low control of was taken as 100% activity for each kinase. As part of the data evaluation the low control value of each kinase was subtracted from the high control value as well as from their corresponding “compound values”. The residual activity (in %) for each compound well was calculated by using the following formula: Res. Activity (%)=100×[(cpm of compound−low control)/(high control−low control)]

[3] = mean ± SEM over the 11 human cancer cell lines, MTT, 72 hours, read-out: In Vitro IC50 Growth Inhibitory Values, m ± SEM
[4] = Homo sapiens, 72 h, read-out: In Vitro IC50 Growth Inhibitory Values, m ± SEM

Structure (SMILES)	IC50 ([1]; Homo sapiens, MTT colorimetric assay, read-out: IC50 growth inhibitory values, range depending on the cancer cell line analyzed) [µM]	IC50 [1, 3] [µM]	IC50 [2] [µM]	inhibition at 57 µM [2] [%]	IC50 [1, 4] [µM]
COc1cc(C(=O)OCCCCCCOC(=O)c2ccc(O)c(OC)c2)ccc1O [DLT11, Hexane-1,6-diyl bis-(4-hydroxy-3-methoxybenzoate)]	22 to 71	49			
COc1cc(C(=O)OCCOC(=O)c2ccc(O)c(OC)c2)ccc1O [DLT1, Ethane-1,2-diyl bis-(4-hydroxy-3-methoxybenzoate)]		53			
COc1cc(C(=O)O)ccc1O [vanillic acid, reference compound]		> 1000	> 100		
COc1cc(C(=O)OCc2cc(COC(=O)c3ccc(O)c(OC)c3)cc(COC(=O)c3ccc(O)c(OC)c3)c2)ccc1O [DLT95, [3,5-bis[(4-hydroxy-3-methoxy-benzoyl)oxymethyl]phenyl]methyl 4-hydroxy-3-methoxy-benzoate]			9.1		
O=C(OCc1cc(COC(=O)c2ccc(O)c(Cl)c2)cc(COC(=O)c2ccc(O)c(Cl)c2)c1)c1ccc(O)c(Cl)c1 [DLT95-Cl, [3,5-bis[(4-hydroxy-3-chloro-benzoyl)oxymethyl]phenyl]methyl 4-hydroxy-3-chloro-benzoate]			1.7	≥ 50	29 ± 1
O=C(OCc1cc(COC(=O)c2ccc(O)c(F)c2)cc(COC(=O)c2ccc(O)c(F)c2)c1)c1ccc(O)c(F)c1 [DLT95-F, [3,5-bis[(4-hydroxy-3-fluoro-benzoyl)oxymethyl]phenyl]methyl 4-hydroxy-3-fluoro-benzoate]			3.2	≥ 50	33 ± 2
